Data reported in patent US20250057822A1, “PSYCHO[…] TREATING HEARING-RELATED DISORDERS” (THE REGENTS OF THE UNIVERSITY OF CALIFORNIA, priority 2021, published 2025).

What was measured:
C57/B6 female mice = assay: Auditory brainstem response (ABR) assay, wave I amplitude; assay type: in vivo; details: 1 mg/kg, 24 h post-treatment vs baseline (5-6 days pre-treatment), p<0.01, n=3
Experimental: The ABR amplitudes were analyzed at baseline (5-6 days pre-treatment) and 24 h post-treatment of vehicle (FIG. 2A and FIG. 2B) or 1 mg/kg of the psychoplastogen psilocin (FIG. 2C and FIG. 2D) at 8 and 16 kHz. Data are presented as mean±SEM. […] N=3 8-week old C57/B6 female mice per condition.
Auditory brainstem responses (ABRs) were recorded at baseline (5-6 days prior to treatment) and 24 h post treatment with psilocin (1 mg/kg). Mice were anesthetized via i.p. injections of ketamine (90 mg/kg) and xylazine (20 mg/kg). Subcutaneous electrodes were placed behind the right pinna (inverting) and vertex (active). A ground electrode was placed in the left leg of the mouse. Stimuli were 5-ms tone pips (2 ms cos2 rise-fall) delivered at 21/s with alternating stimulus polarity. Recorded electrical responses were filtered (300 Hz to 3 kHz) and averaged using BioSig software (TDT). The sound intensity level was decreased in 5 dB increments from 90 dB SPL-20 dB SPL. At each sound level 512 responses were averaged.
Wave I amplitudes were measured from the estimated baseline prior to the response to the peak of wave I in μV. ABR wave I amplitudes were analyzed at baseline (5-6 days pre-treatment) and 24 h post-treatment of psilocin (1 mg/kg). Data analyses and statistics were performed using Prism version 9.4 (GraphPad) and presented as mean±SEM. […]

[1] = tested on: inner hair cell ribbon synapses (organ of Corti); assay: Inner hair cell ribbon synapse density 24 h after psilocin treatment; assay type: in vivo, mice; details: 1 mg/kg, 24 h after treatment, mean±SEM
Experimental: C57/B6 female mice, aged 8-weeks-old were treated with psilocin (1 mg/kg) (n=3) and Vehicle (0.9% saline) (n=2). […] Synapse density increase was not significant in the 8 kHz region (Vehicle: 16.50±3.826, psilocin: 17.79±3.826, P=0.5554). For each animal, 17-22 inner hair cells were quantified per frequency (8 kHz and 16 kHz regions of the organ of Corti). Data are presented as mean±SEM.*p<0.05.
8-week old C57/B6 mice were injected with 1 mg/kg psilocin or vehicle control (0).9% saline). 24 h later, mice were euthanized then inner ear tissues were collected for immunofluorescence. Isolated cochlea were punched into oval and round windows using a syringe needle and rinsed/fixed with 4% paraformaldehyde in 1×cold PBS. Then, cochlea were further fixed in 4% paraformaldehyde in 1×cold PBS for additional 2 hours at 4C0. Following fixation, samples were rinsed 3×20 min in PBS and dissected under a stereomicroscope to the three turns: apical, middle and basal. Tissues were permeabilized in PBS+0.25% Triton X-100 solution for 10 min at room temperature on a rocking platform; blocked with 10% goat serum and 25 mM glycine for 1 h at RT. […]

Structure (SMILES): CN(C)CCc1c[nH]c2cccc(O)c12 [psilocin]
- ABR wave I amplitude, change from baseline (C57/B6 female mice; 8 kHz): significantly increased
- ABR wave I amplitude, change from baseline (C57/B6 female mice; 16 kHz): significantly increased
- inner hair cell ribbon synapse density ([1]; 8 kHz region, not significant vs vehicle 16.50±3.826, P=0.5554): 17.79±3.826
- inner hair cell ribbon synapse density ([1]; 16 kHz region, significant vs vehicle 16±3.826, P=0.0169): 23.27±3.826
